Source: patent EP0727211A1, “Use of src SH2 specific compounds to treat a bone resorption disease” (SMITHKLINE BEECHAM CORPORATION, priority 1995, dated 1996)

Assays:
human fyn SH2 domain = molecular target: T1, human fyn SH2 domain (Homo sapiens, UniProt P06241); test: SH2 domain / pY peptide binding assay (ELISA-based, 96 well plate), fyn SH2; conditions: for Ki: Ki calculated from IC50 by the expanded equation, Table II; for IC50: cloned human SH2 domain fusion protein, 0.1 uM biotinylated pY peptide, Table I
T1 construct: SH2 domain of human fyn (amino acids 143-252); made in house; host or cells: E. coli (pGEX-2T)
Method: (§1) The inhibitory activity of compounds at the different human SH2 domains was determined in vitro using SH2 domains expressed as fusion proteins in E. coli. The SH2 domains used herein were the human forms of the src SH2 domain, Grb2 SH2 domain, lck SH2 domain, fyn SH2 domain, SH-PTP2 SH2 domain, p85 SH2 domain and hcp SH2 domain.
(§2) Fusion proteins having the structure GST-X-SH2 were prepared as described in the GST gene fusion kit system available from Pharmacia (New Jersey). GST is the tagging sequence glutathione s-transferase epitope (SEQ ID NO: 8) for fyn, Grb2 and SH-PTP2 and is the tagging sequence glutathione s-transferase epitope (SEQ ID NO: 9) for p85. SH2 refers to the SH2 domains of fyn, Grb2, p85 and SH-PTP2 which were expressed and purified using glutathione Sepharose 4B (Pharmacia) according to "Current Protocols in Molecular Biology", ed. FM Ausubel et al., pub. John Wiley and Sons, Inc., (1995), p 16.7.1. X is an appropriate linker, preferably of 6 to 21 base pairs, used to keep the SH2 construct in frame and complement cloning. As such, the sequence of X is not critical. One skilled in the art can readily construct the appropriate linker. The DNA sequence encoding each GST-X-SH2 fusion protein was designed such that the indicated restriction sites (BamH1 and EcoRI) flank the SH2 region. The vector used in the instant experiments was the E. coli expression vector pGEX-2T (Pharmacia) for fyn, Grb2 and SH-PTP2, and pGEX-3X (Pharmacia) for p85. Each of these vectors result in SH2 constructs having additional C-terminal amino acids as described below.
The sequence encoding the SH2 domain of human fyn (amino acids 143-252) (Yamamoto, T. et al. Proc. Natl. Acad. Sci. USA 83, 5459-5463 (1986)) was cloned into the BamHI and EcoRI sites of the expression vector pGEX-2T. The SH2 domain including the additional C-terminal amino acids leucine-threonine-asparagine-serine-serine (SEQ ID NO: 10) was cloned by PCR techniques known to those skilled in the art to yield the expressed fusion protein GST-X-fyn.
(§3) The binding assays for the SH2 domains and pY peptides were performed in an ELISA-based 96 well plate assay. In Millipore 96 well filter plates, hydrophilic Durapore® (pore size 0.65um Cat. No. MADVN6550), was added 2 ul (50% suspension) of Protein-G Sepharose (available from Pharmacia of N.J. Cat. No. 17-0618-01) and either 2 ul of 2 mg/ml of MAB178. (for gp120/SH2 domain fusion proteins src, lck and hcp) or 0.25 ul of anti-GST polyclonal antisera (available from Pharmacia of N.J.) (for GST/SH2 domain fusion proteins fyn, Grb2, p85 and SH-PTP2). 10 pmol of the subject SH2 domain fusion protein were added to their respective wells. The volume was brought to 100 ul with TBS-T (tris buffered saline plus 0.05% tween-20), incubated and shaken at room trmperature for 1 hr. then washed 1x with TBS-T (4°C). 90 ul of TBS-T were then added to each well. Specific pY biotinylated peptides were diluted to a concentration of 1.0 uM in TBS-T (these peptides can be obtained from Bachem Bioscience of Pennsylvania, Genosys Biotechnologies of Texas and California Peptide Research of California). 10 ul was aliquoted per well to yield a final concentration of 0.1 uM (approx, the Kd for each SH2 domain/peptide pair) and a final volume of 100 ul. The assay plates were incubated until equilibrium binding was attained (3 hr at 4°C with shaking). The assay plates were washed 2 X per well TBS-T (4°C), then 100 ul of SABC (Strepavidin biotinylated horseradish peroxidase complex, available from the Zymed corporation of California cat. no. 93-0043, 1 drop reagent A (streptavidin) and 1 drop of reagent B (AH-biotin conjugated-horseradish peroxidase) per 10 ml of TBS-T, incubated at 37°C for 30 minutes, then cooled to 4°C) was added per well, then incubated at 4°C for 30-60 minutes. The plates were then washed 4 X with TBS-T (4°C) (250 ul/well)/wash). […]

human SH-PTP2 SH2 domain = molecular target: T2, human SH-PTP2 SH2 domain (Homo sapiens, UniProt Q06124); test: SH2 domain / pY peptide binding assay (ELISA-based, 96 well plate), SH-PTP2 SH2; conditions: for Ki: Ki calculated from IC50 by the expanded equation, Table II; for IC50: cloned human SH2 domain fusion protein, 0.1 uM biotinylated pY peptide, Table I
T2 construct: SH2 domain of human SH-PTP2 (amino acids 1-106); made in house; host or cells: E. coli (pGEX-2T)
T2 sequence (Q06124 1-106): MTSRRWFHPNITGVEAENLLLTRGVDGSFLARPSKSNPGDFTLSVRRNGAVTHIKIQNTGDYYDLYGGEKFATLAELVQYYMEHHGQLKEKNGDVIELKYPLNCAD
Method: as §1, §2
Human SH-PTP2 SH2 domain: The sequence encoding the SH2 domain of human SH-PTP2 (amino acids 1-106))(Bastien, L. et al., Biochem. Biophys. Res. Commun. 196, 124-133 (1993)) was cloned into the BamHI and EcoRI sites of the expression vector pGEX-2T. The SH2 domain including the additional C-terminal amino acids glutamine-phenylalanine-isoleucine-valine-threonine-aspartate (SEQ ID NO: 12) was cloned by PCR techniques known to those skilled in the art to yield the expressed fusion protein GST-X-SH-PTP2.
as §3

T1 sequence (P06241 143-252): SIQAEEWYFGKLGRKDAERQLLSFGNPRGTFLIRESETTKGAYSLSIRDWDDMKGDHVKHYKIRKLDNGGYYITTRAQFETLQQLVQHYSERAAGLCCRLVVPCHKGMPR

Compound	Ki (human fyn SH2 domain)	IC50 (human fyn SH2 domain)	Ki (human SH-PTP2 SH2 domain)	IC50 (human SH-PTP2 SH2 domain)
4-acetamido-benzamido-trans-4-methyl-cyclohexyl-N-1-(amino-R-2-(methoxy methyl)-pyrrolidine) carboxamide [Compound 8]	> 1000 µM	> 300 µM	> 1000 µM	> 300 µM
Cc1nnc(SCC2=C(C(=O)O)N3C(=O)[C@@H](NC(=O)C(N)c4ccc(C(=O)O)cc4)[C@H]3SC2)s1 (stereo partly drawn) [Compound 1, 7-[D,L-α-Amino-α-(4-carboxyphenyl)acetamido]-3-[2-(5-methyl-1,3,4-thiadiazolyl)thiomethyl]Δ^3-cephem-4-carboxylic Acid]	> 1000 µM	> 300 µM	> 1000 µM	> 300 µM
N[C@@H](Cc1cc(Br)c(Oc2ccc(O)c(Cc3ccc(O)nn3)c2)c(Br)c1)C(=O)O [Compound 2, L-3,5-Dibromo-3'-(6-oxo-3(1H)-pyridazinylmethyl)-thyronine]	> 1000 µM	> 300 µM	> 1000 µM	> 300 µM
Cc1nc2sc3c(c2c2[nH][nH]c(=O)c12)CCC1(C3)OCCO1 [Compound 3, 8,8-Ethylenedioxy-2,3,7,8,9,10-hexahydro-4-methyl-1H-benzo[b]thieno[2,3-b]pyrazolo[3,4-d]pyridin-3-one]	> 1000 µM	> 300 µM	> 1000 µM	> 300 µM
Cc1ccc(C(=O)c2ccc(C(=O)c3ccc(CC=O)cc3)cc2)cc1 [Compound 4, 4-[4-(4-Methylbenzoyl)benzoyl]phenylacetaldehyde]	> 1000 µM	> 300 µM		
Cc1nc2sc3c(c2c2c1c(=O)[nH]n2C)CCC1(C3)OCCO1 [Compound 5, 1,4-Dimethyl-8,8-ethylenedioxy-2,3,7,8,9,10-hexahydro-1H-benzo[b]thieno[2,3-b]pyrazolo[3,4-d]pyridin-3-one]	> 1000 µM	> 300 µM	> 1000 µM	> 300 µM
CCCCCCNC(=O)[C@H]1CC[C@H](CNC(=O)c2ccc([N+](=O)[O-])cc2)CC1 [Compound 7, 4-nitro-benzamido-trans-4-methyl-cyclohexyl-N-hexyl carboxamide]	> 1000 µM	> 300 µM	> 1000 µM	> 300 µM
CCCNC(=O)[C@H]1CC[C@H](CNC(=O)/C=C/c2ccc(C=O)cc2)CC1 [Compound 9, 4-formyl-E-cinnamido-trans-4-methyl-cyclohexyl-N-(propyl) carboxamide]	> 1000 µM	> 300 µM	> 1000 µM	> 300 µM
Cc1nc2sc3c(c2c2[nH][nH]c(=O)c12)CCCC3 [Compound 10, 2,3,7,8,9,10-Hexahydro-4-methyl-1H-benzo[b]thieno[2,3-b]pyrazolo[3,4-d]pyridin-3-one]	> 1000 µM	> 300 µM	> 1000 µM	> 300 µM
